Data on 1 compound can be found in publication PMC4129416, “YLT192, a Novel, Orally Active Bioavailable Inhibitor of VEGFR2 Signaling with Potent Antiangiogenic Activity and Antitumor Efficacy in Preclinical Models” (Scientific Reports, 2014).

Read-outs that look alike come from different tables or passages of the source.

A word on the IC50: it is the concentration at which inhibition is half-maximal.

Assay [1] relates to VEGFR2 signaling pathway in HUVEC. The experiment in a line: Western blot of VEGF-induced VEGFR2 phosphorylation and downstream signalling in HUVEC. It is filed as cell-based, human. The note with it: concentration-dependent. How it is done: Figure 2 Effects of YLT192 on HUVECs proliferation, migration, invasion and tube formation. […] Cells were wounded by the pipette and then treated with various concentrations of compounds for 24 hours. Migrated cells were quantified by manual counting (50×). […] The bottom chambers of the transwells were filled with 600 μL EGM2 containing various growth factors while the top chambers were seeded with 4 × 10^4 HUVECs in EBM2 and treated with different concentrations of compounds for 24 hours. Cells invaded through the membrane were stained and quantified (100×). […] HUVECs were seeded on Matrigel layer and treated with different concentrations of compounds. HUVECs tube formation was assessed 6 hours later (50×). One representative experiment of three is shown. For (A), (B) and (C), data represent the mean ± SEM of three different experiments. Each experiment was performed in duplicate.*P < 0.05, **P < 0.01. (D) YLT192 inhibited VEGF-induced phosphorylation of VEGFR2 and its downstream signal regulator p44/42 MAPK, STAT3 and AKT in HUVECs. One representative Western blot of three is presented. Each has the expression of β-actin as internal control. The full size blots were shown in the Supplemental Figure S5 online. (E) Cellular thermal shift assay showing VEGFR2 target engagement by YLT192 in intact HUVECs. One representative Western blot of two is presented. […]
(In general: In western blotting, separated proteins are transferred to a membrane and probed.)

The subject of a further assay is A375. The experiment in a line: Inhibition of tumor cell growth. It is filed as cell-based. The settings on record: A-375; A375, human melanoma; 48 hour treatment; means ± SD, n=3. The protocol:
(§1) The proliferative inhibitory ability of YLT192 on tumor cells was investigated. […] Inhibition of cell proliferation is a possible approach for cancer treatment. EdU incorporation assay was performed to investigate the anti-proliferative effects of YLT192 against U251 and HCT116 cells. […]
(§2) treatment with YLT192. Data are means ± SD, n=3. cell line cell type IC50(μM)
(§3) HCT116 human colorectal carcinoma 7.4 ±0.5
(§4) A431 human pidermoid carcinoma 7.7 ±0.9
(§5) BxPC-3 human pancreatic cancer 8.2 ±0.6
(§6) Hep G2 human hepatocellular carcinoma 7.9 ±0.5
(§7) SW620 human colorectal carcinoma 7.9 ±1.7
(§8) SKOV-3 human ovarian carcinoma 8.2 ±1.5
(§9) LS147T human colorectal carcinoma 9.0 ±1.1
(§10) PANC-1 human pancreatic cancer 9.8 ±1.9
(§11) BEL7402 human hepatocellular carcinoma 11.3 ±1.1
(§12) MDA-MB-231 human mammary carcinoma 11.9 ±2.1
(§13) SMMC-7721 human hepatocellular carcinoma 12.1 ±1.6
(§14) SPC-A1 human lung cancer 16.4 ±1.4
(§15) MCF-7 human mammary carcinoma 16.8 ±1.7
(§16) Hela human epithelial carcinoma 18.9 ±2.4
(§17) MV4-11 human acute myeloid leukemia 21.9 ±1.9
(§18) COLO-205 human colorectal carcinoma 23.0 ±1.5

A further assay deals with B16. Description: Inhibition of tumor cell growth. It counts as cell-based. The note with it: B16, mouse melanoma; 48 hour treatment; means ± SD, n=3. The protocol:
as §1, §2, §3, §4, §5, §6, §7, §8, §9, §10, §11, §12, §13, §14, §15, §16, §17, §18

Another assay has as its system DU145. Description: Inhibition of tumor cell growth. It counts as cell-based. The note with it: DU-145; DU145, human prostate cancer; 48 hour treatment; means ± SD, n=3. The protocol:
as §1, §2, §3, §4, §5, §6, §7, §8, §9, §10, §11, §12, §13, §14, §15, §16, §17, §18

For another assay, the system named is NIH-H1975. The experiment in a line: Inhibition of tumor cell growth. It counts as cell-based. The note with it: NIH-H1975, human lung cancer; 48 hour treatment; means ± SD, n=3. How it is done:
as §1, §2, §3, §4, §5, §6, §7, §8, §9, §10, §11, §12, §13, §14, §15, §16, §17, §18

In another assay the test system is U251. The experiment in a line: Inhibition of tumor cell growth. It is filed as cell-based. The settings on record: U-251; U251, human glioblastoma; 48 hour treatment; means ± SD, n=3. The protocol:
as §1, §2, §3, §4, §5, §6, §7, §8, §9, §10, §11, §12, §13, §14, §15, §16, §17, §18

The next assay relates to COLO-205. The experiment in a line: Inhibition of tumor cell growth. It is filed as cell-based. The note with it: COLO-205, human colorectal carcinoma; 48 hour treatment; means ± SD, n=3.
From the text: Data are means ± SD, n=3.
cell line cell type IC50(μM) […]
as §18

The next assay concerns tumor cells. Description: Cancer cell viability assays, whole panel. It counts as cell-based.

`CNC(=O)c1cc(Oc2ccc(NC(=O)c3cccc(OC)c3)cc2)ccn1` [YLT192]: the “VEGF-stimulated phosphorylation of VEGFR2 and downstream p44/42 MAPK, AKT, and STAT3” value in assay [1] is on record as “clearly reduced”. Also, the IC50 with A375 was determined as 12.4 ± 1.1 µM; with B16, 21.2 ± 2.1 µM; in the assay with DU145, 22.8 ± 2.6 µM; in the assay with NIH-H1975 it was 27.3 ± 1.2 µM; with U251 it was 6.5 ± 0.8 µM; in the assay with COLO-205, 23 ± 1.5 µM. Besides, the IC50 with tumor cells (range for most tumor cell lines of the panel, read-out: Most IC50 against the tumor cells) lay in the range of 6 to 20 µM; with tumor cells (range over the cancer cell panel, read-out: IC50 values in cancer cell viability assays), 6 to 30 µM.
